In patent publication US6852673B2, “Herbicidal pyridine compounds” (BASF Aktiengesellschaft, priority 1998, dated 2005):

Tests used:
Assay type in all cases: in vivo
[1] = tested on: Ambrosia artemiisifolia (AMBEL); test: Pre-emergence herbicidal evaluation, ragweed
How it was run: (§1)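 Seeds mixed with potting soil were planted over about one inch of soil per pot, then sprayed with test compound in aqueous acetone at the equivalent of about 0.0125 to 0.4 kg per hectare. Pots were kept under standard greenhouse care and visually rated 2 to 4 weeks after treatment.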

[2] = tested on: Ipomoea hederacea (IPOHE); test: Post-emergence herbicidal evaluation, morning glory; details: rated 2 to 4 weeks after treatment
How it was run: (§2)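 Plants rated 0–9 (0 = growth as untreated control, 9 = death) 2 to 4 weeks after greenhouse post-emergence treatment. Formulations were water-diluted acetone solutions sprayed at doses equivalent to about 0.03 to 0.4 kg test compound per hectare per pot.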

[3] = tested on: Solanum nigrum (SOLNI); test: Post-emergence herbicidal evaluation, black nightshade; details: rated 2 to 4 weeks after treatment
How it was run: as §2

[4] = tested on: Lamium purpureum (LAMPU); test: Post-emergence herbicidal evaluation, purple deadnettle; details: rated 2 to 4 weeks after treatment
How it was run: as §2

[5] = tested on: Matricaria inodora (MATIN); test: Pre-emergence herbicidal evaluation, mayweed
How it was run: as §1

[6] = tested on: Echinochloa grus galli (ECHCG); test: Pre-emergence herbicidal evaluation, barnyard grass
How it was run: as §1

[7] = tested on: Oryza sativum (ORYSA); test: Pre-emergence herbicidal evaluation, rice
How it was run: as §1

[8] = tested on: Solanum nigrum (SOLNI); test: Pre-emergence herbicidal evaluation, black nightshade
How it was run: as §1

[9] = tested on: Lamium purpureum (LAMPU); test: Pre-emergence herbicidal evaluation, purple deadnettle
How it was run: as §1

[10] = tested on: Oryza sativum (ORYSA); test: Post-emergence herbicidal evaluation, rice; details: rated 2 to 4 weeks after treatment
How it was run: as §2

[11] = tested on: Zea mays (ZEAMX); test: Post-emergence herbicidal evaluation, maize; details: rated 2 to 4 weeks after treatment
How it was run: as §2

[12] = tested on: Glycine max (GLXMA); test: Pre-emergence herbicidal evaluation, soyabeans
How it was run: as §1

[13] = tested on: Echinochloa grus galli (ECHCG); test: Post-emergence herbicidal evaluation, barnyard grass; details: rated 2 to 4 weeks after treatment
Experimental: (§3) [table] [table] […] These acetone solutions are diluted with water and the resulting formulations applied at dosage levels equivalent of about 0.03 to 0.4 kg per hectare of test compound per pot. After spraying the plants are placed on greenhouse benches and are cared for in the usual manner, commensurate with conventional greenhouse practices. From 2 to 4 weeks after treatment, the seedling plants are examined and rated according to the rating system provided above. A rating 0 indicates growth as untreated control, a rating 9 indicates death.

[14] = tested on: Triticum aestivum (TRZAW); test: Post-emergence herbicidal evaluation, winter wheat; details: rated 2 to 4 weeks after treatment
How it was run: as §2

[15] = tested on: Glycine max (GLXMA); test: Post-emergence herbicidal evaluation, soyabeans; details: rated 2 to 4 weeks after treatment
Experimental: as §3

[16] = tested on: Stellaria media (STEME); test: Post-emergence herbicidal evaluation, chickweed; details: rated 2 to 4 weeks after treatment
How it was run: as §2

[17] = tested on: Hordeum vulgare (HORVW); test: Pre-emergence herbicidal evaluation, winter barley
How it was run: as §1

[18] = tested on: Hordeum vulgare (HORVW); test: Post-emergence herbicidal evaluation, winter barley; details: rated 2 to 4 weeks after treatment
How it was run: as §2

[19] = tested on: Setaria viridis (SETVI); test: Pre-emergence herbicidal evaluation, green foxtail
How it was run: as §1

[20] = tested on: Abutilon theophrasti (ABUTH); test: Post-emergence herbicidal evaluation, velvetleaf; details: rated 2 to 4 weeks after treatment
How it was run: as §2

[21] = tested on: Ipomoea hederacea (IPOHE); test: Pre-emergence herbicidal evaluation, morning glory
How it was run: as §1

[22] = tested on: Zea mays (ZEAMX); test: Pre-emergence herbicidal evaluation, maize
How it was run: as §1

[23] = tested on: Alopecurus myosuroides (ALOMY); test: Pre-emergence herbicidal evaluation, black grass
How it was run: as §1

[24] = tested on: Digitaria sanguinalis (DIGSA); test: Post-emergence herbicidal evaluation, large crabgrass; details: rated 2 to 4 weeks after treatment
How it was run: as §2

[25] = tested on: Abutilon theophrasti (ABUTH); test: Pre-emergence herbicidal evaluation, velvetleaf
How it was run: as §1

[26] = tested on: Matricaria inodora (MATIN); test: Post-emergence herbicidal evaluation, mayweed; details: rated 2 to 4 weeks after treatment
How it was run: as §2

Cc1cc(OC=CCC(F)(F)F)nc(Oc2cc(C(F)(F)F)nn2C)c1 [Example 2, 2-(1-Methyl-3-trifluoromethylpyrazol-5-yloxy)-4-methyl-6-(4,4,4-trifluorobut-1-enyloxy)pyridine]
AMBEL rating ([1]; dose 0.013 kg/ha): 1 (1 - Trace effect) | AMBEL rating ([1]; dose 0.025 kg/ha): 3 (3 - Moderate effect) | AMBEL rating ([1]; dose 0.1 kg/ha): 8 (8 - Approaching complete kill) | AMBEL rating ([1]; dose 0.4 kg/ha): 9 (9 - Complete kill) | IPOHE rating ([2]; dose 0.03 kg/ha): 8 (8 - Approaching complete kill) | IPOHE rating ([2]; dose 0.1 kg/ha): 9 (9 - Complete kill) | IPOHE rating ([2]; dose 0.4 kg/ha): 9 (9 - Complete kill) | SOLNI rating ([3]; dose 0.03 kg/ha): 7 (7 - Good herbicidal effect) | SOLNI rating ([3]; dose 0.1 kg/ha): 8 (8 - Approaching complete kill) | SOLNI rating ([3]; dose 0.4 kg/ha): 8 (8 - Approaching complete kill) | LAMPU rating ([4]; dose 0.03 kg/ha): 8 (8 - Approaching complete kill) | LAMPU rating ([4]; dose 0.1 kg/ha): 8 (8 - Approaching complete kill) | LAMPU rating ([4]; dose 0.4 kg/ha): 8 (8 - Approaching complete kill) | MATIN rating ([5]; dose 0.013 kg/ha): 4 (4 - Injury) | MATIN rating ([5]; dose 0.025 kg/ha): 6 (6 - Herbicidal effect) | MATIN rating ([5]; dose 0.1 kg/ha): 8 (8 - Approaching complete kill) | MATIN rating ([5]; dose 0.4 kg/ha): 9 (9 - Complete kill) | ECHCG rating ([6]; dose 0.013 kg/ha): 0 (0 - No effect) | ECHCG rating ([6]; dose 0.025 kg/ha): 2 (2 - Slight effect) | ECHCG rating ([6]; dose 0.1 kg/ha): 8 (8 - Approaching complete kill) | ECHCG rating ([6]; dose 0.4 kg/ha): 9 (9 - Complete kill) | ORYSA rating ([7]; dose 0.013 kg/ha): 0 (0 - No effect) | ORYSA rating ([7]; dose 0.025 kg/ha): 1 (1 - Trace effect) | ORYSA rating ([7]; dose 0.1 kg/ha): 2 (2 - Slight effect) | ORYSA rating ([7]; dose 0.4 kg/ha): 3 (3 - Moderate effect) | SOLNI rating ([8]; dose 0.013 kg/ha): 0 (0 - No effect) | SOLNI rating ([8]; dose 0.025 kg/ha): 1 (1 - Trace effect) | SOLNI rating ([8]; dose 0.1 kg/ha): 8 (8 - Approaching complete kill) | SOLNI rating ([8]; dose 0.4 kg/ha): 9 (9 - Complete kill) | LAMPU rating ([9]; dose 0.013 kg/ha): 8 (8 - Approaching complete kill) | LAMPU rating ([9]; dose 0.025 kg/ha): 8 (8 - Approaching complete kill) | LAMPU rating ([9]; dose 0.1 kg/ha): 9 (9 - Complete kill) | LAMPU rating ([9]; dose 0.4 kg/ha): 9 (9 - Complete kill) | ORYSA rating ([10]; dose 0.03 kg/ha): 2 (2 - Slight effect) | ORYSA rating ([10]; dose 0.1 kg/ha): 3 (3 - Moderate effect) | ORYSA rating ([10]; dose 0.4 kg/ha): 3 (3 - Moderate effect) | ZEAMX rating ([11]; dose 0.03 kg/ha): 2 (2 - Slight effect) | ZEAMX rating ([11]; dose 0.1 kg/ha): 4 (4 - Injury) | ZEAMX rating ([11]; dose 0.4 kg/ha): 5 (5 - Definite injury) | GLXMA rating ([12]; dose 0.013 kg/ha): 0 (0 - No effect) | GLXMA rating ([12]; dose 0.025 kg/ha): 1 (1 - Trace effect) | GLXMA rating ([12]; dose 0.4 kg/ha): 4 (4 - Injury) | ECHCG rating ([13]; dose 0.03 kg/ha): 2 (2 - Slight effect) | ECHCG rating ([13]; dose 0.1 kg/ha): 5 (5 - Definite injury) | ECHCG rating ([13]; dose 0.4 kg/ha): 7 (7 - Good herbicidal effect) | TRZAW rating ([14]; dose 0.03 kg/ha): 2 (2 - Slight effect) | TRZAW rating ([14]; dose 0.1 kg/ha): 3 (3 - Moderate effect) | TRZAW rating ([14]; dose 0.4 kg/ha): 3 (3 - Moderate effect) | GLXMA rating ([15]; dose 0.03 kg/ha): 7 (7 - Good herbicidal effect) | GLXMA rating ([15]; dose 0.1 kg/ha): 8 (8 - Approaching complete kill) | GLXMA rating ([15]; dose 0.4 kg/ha): 8 (8 - Approaching complete kill) | STEME rating ([16]; dose 0.03 kg/ha): 4 (4 - Injury) | STEME rating ([16]; dose 0.1 kg/ha): 6 (6 - Herbicidal effect) | STEME rating ([16]; dose 0.4 kg/ha): 8 (8 - Approaching complete kill) | HORVW rating ([17]; dose 0.013 kg/ha): 0 (0 - No effect) | HORVW rating ([17]; dose 0.025 kg/ha): 0 (0 - No effect) | HORVW rating ([17]; dose 0.1 kg/ha): 3 (3 - Moderate effect) | HORVW rating ([17]; dose 0.4 kg/ha): 5 (5 - Definite injury) | HORVW rating ([18]; dose 0.03 kg/ha): 3 (3 - Moderate effect) | HORVW rating ([18]; dose 0.1 kg/ha): 3 (3 - Moderate effect) | HORVW rating ([18]; dose 0.4 kg/ha): 3 (3 - Moderate effect) | SETVI rating ([19]; dose 0.013 kg/ha): 5 (5 - Definite injury) | SETVI rating ([19]; dose 0.025 kg/ha): 6 (6 - Herbicidal effect) | SETVI rating ([19]; dose 0.1 kg/ha): 9 (9 - Complete kill) | SETVI rating ([19]; dose 0.4 kg/ha): 9 (9 - Complete kill) | ABUTH rating ([20]; dose 0.03 kg/ha): 8 (8 - Approaching complete kill) | ABUTH rating ([20]; dose 0.1 kg/ha): 8 (8 - Approaching complete kill) | ABUTH rating ([20]; dose 0.4 kg/ha): 9 (9 - Complete kill) | IPOHE rating ([21]; dose 0.013 kg/ha): 1 (1 - Trace effect) | IPOHE rating ([21]; dose 0.025 kg/ha): 3 (3 - Moderate effect) | IPOHE rating ([21]; dose 0.1 kg/ha): 3 (3 - Moderate effect) | IPOHE rating ([21]; dose 0.4 kg/ha): 7 (7 - Good herbicidal effect) | ZEAMX rating ([22]; dose 0.013 kg/ha): 0 (0 - No effect) | ZEAMX rating ([22]; dose 0.025 kg/ha): 1 (1 - Trace effect) | ZEAMX rating ([22]; dose 0.1 kg/ha): 2 (2 - Slight effect) | ZEAMX rating ([22]; dose 0.4 kg/ha): 4 (4 - Injury) | ALOMY rating ([23]; dose 0.013 kg/ha): 1 (1 - Trace effect) | ALOMY rating ([23]; dose 0.025 kg/ha): 1 (1 - Trace effect) | ALOMY rating ([23]; dose 0.1 kg/ha): 7 (7 - Good herbicidal effect) | ALOMY rating ([23]; dose 0.4 kg/ha): 9 (9 - Complete kill) | DIGSA rating ([24]; dose 0.03 kg/ha): 7 (7 - Good herbicidal effect) | DIGSA rating ([24]; dose 0.1 kg/ha): 9 (9 - Complete kill) | DIGSA rating ([24]; dose 0.4 kg/ha): 9 (9 - Complete kill) | ABUTH rating ([25]; dose 0.013 kg/ha): 1 (1 - Trace effect) | ABUTH rating ([25]; dose 0.025 kg/ha): 4 (4 - Injury) | ABUTH rating ([25]; dose 0.1 kg/ha): 6 (6 - Herbicidal effect) | ABUTH rating ([25]; dose 0.4 kg/ha): 9 (9 - Complete kill) | MATIN rating ([26]; dose 0.03 kg/ha): 6 (6 - Herbicidal effect) | MATIN rating ([26]; dose 0.1 kg/ha): 8 (8 - Approaching complete kill) | MATIN rating ([26]; dose 0.4 kg/ha): 9 (9 - Complete kill)
